The compounds below were run on Setaria faberi (SETFA) (assay: Example B pre-emergence herbicidal activity). Settings: 312 h, rate 250 g/ha, evaluated after 13 days, read-out: Pre-Emergence Activity SETFA (100=total damage to plant; 0=no damage to plant).
Format: in vivo
Method in brief: (§1)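 Damage was rated 13 days after treatment on a 0 (no damage) to 100 (total damage) scale. Pots of soil-sown plants had been sprayed one day after sowing for pre-emergence or at 8 days for post-emergence. Spray: acetone/water (50:50), 0.5% Tween 20.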

Q: How did the pest or weed control at 250 g/ha turn out when `CCc1sc(-c2c(F)cc(Cl)cc2F)nc1C1C(=O)[C@@H]2CC[C@@H](C2)C1=O` (stereo partly shown) [Compound T29] was run?
A: Its pest or weed control at 250 g/ha is 100%.

Q: `Cc1sc(-c2ccc(OC(F)F)cc2Cl)nc1C1=C(OC(=O)C(C)(C)C)[C@@H]2CC[C@@H](C2)C1=O` [Compound P17] was tested. Which pest or weed control at 250 g/ha did it give?
A: The pest or weed control at 250 g/ha was 100%.

Q: How did the pest or weed control at 250 g/ha turn out when `CCc1sc(-c2ccc(Cl)cc2Br)nc1C1C(=O)[C@@H]2CC[C@@H](C2)C1=O` (stereo partly shown) [Compound T51] was run?
A: Its pest or weed control at 250 g/ha is 100%.

Q: How did the pest or weed control at 250 g/ha turn out when `CSc1ccc(-c2nc(C3C(=O)[C@@H]4CC[C@@H](C4)C3=O)c(C)s2)cc1` (stereo partly shown) [Compound T81] was run?
A: The pest or weed control at 250 g/ha was 100%.

What follows are compounds tested on Echinochloa crus-galli (ECHCG) (assay: Example B pre-emergence herbicidal activity). Settings: 312 h, rate 250 g/ha, evaluated after 13 days, read-out: Pre-Emergence Activity ECHCG (100=total damage to plant; 0=no damage to plant).
Format: in vivo
Method in brief: as §1

Q: `CCc1sc(-c2c(F)cc(Cl)cc2F)nc1C1C(=O)[C@@H]2CC[C@@H](C2)C1=O` (stereo partly shown) [Compound T29] was tested. Which pest or weed control at 250 g/ha did it give?
A: Its pest or weed control at 250 g/ha is 100%.

Q: How did the pest or weed control at 250 g/ha turn out when `Cc1sc(-c2ccc(OC(F)F)cc2Cl)nc1C1=C(OC(=O)C(C)(C)C)[C@@H]2CC[C@@H](C2)C1=O` [Compound P17] was run?
A: Its pest or weed control at 250 g/ha is 100%.

Q: Which pest or weed control at 250 g/ha does the source give for `CCc1sc(-c2ccc(Cl)cc2Br)nc1C1C(=O)[C@@H]2CC[C@@H](C2)C1=O` (stereo partly shown) [Compound T51] here?
A: Its pest or weed control at 250 g/ha is 100%.

Q: How did the pest or weed control at 250 g/ha turn out when `CSc1ccc(-c2nc(C3C(=O)[C@@H]4CC[C@@H](C4)C3=O)c(C)s2)cc1` (stereo partly shown) [Compound T81] was run?
A: The pest or weed control at 250 g/ha was 100%.

Each compound was assayed on Amaranthus retoflexus (AMARE) (assay: Example B pre-emergence herbicidal activity). Settings: Amaranthus retroflexus, 312 h, rate 250 g/ha, evaluated after 13 days, read-out: Pre-Emergence Activity AMARE (100=total damage to plant; 0=no damage to plant).
Format: in vivo
Method in brief: as §1

Q: For `CCc1sc(-c2c(F)cc(Cl)cc2F)nc1C1C(=O)[C@@H]2CC[C@@H](C2)C1=O` (stereo partly shown) [Compound T29], which pest or weed control at 250 g/ha is on record?
A: Its pest or weed control at 250 g/ha is 20%.

Q: For `Cc1sc(-c2ccc(OC(F)F)cc2Cl)nc1C1=C(OC(=O)C(C)(C)C)[C@@H]2CC[C@@H](C2)C1=O` [Compound P17], which pest or weed control at 250 g/ha is on record?
A: The pest or weed control at 250 g/ha was 0%.

Q: For `CCc1sc(-c2ccc(Cl)cc2Br)nc1C1C(=O)[C@@H]2CC[C@@H](C2)C1=O` (stereo partly shown) [Compound T51], which pest or weed control at 250 g/ha is on record?
A: Its pest or weed control at 250 g/ha is 0%.

Q: With `CSc1ccc(-c2nc(C3C(=O)[C@@H]4CC[C@@H](C4)C3=O)c(C)s2)cc1` (stereo partly shown) [Compound T81] as the compound, how does the pest or weed control at 250 g/ha read?
A: Its pest or weed control at 250 g/ha is 0%.

The compounds below were run on Avena fatua (AVEFA) (assay: Example B pre-emergence herbicidal activity). Settings: 312 h, rate 250 g/ha, evaluated after 13 days, read-out: Pre-Emergence Activity AVEFA (100=total damage to plant; 0=no damage to plant).
Format: in vivo
Method in brief: as §1

Q: How did the pest or weed control at 250 g/ha turn out when `CCc1sc(-c2c(F)cc(Cl)cc2F)nc1C1C(=O)[C@@H]2CC[C@@H](C2)C1=O` (stereo partly shown) [Compound T29] was run?
A: The pest or weed control at 250 g/ha was 90%.

Q: `Cc1sc(-c2ccc(OC(F)F)cc2Cl)nc1C1=C(OC(=O)C(C)(C)C)[C@@H]2CC[C@@H](C2)C1=O` [Compound P17] was tested. Which pest or weed control at 250 g/ha did it give?
A: The pest or weed control at 250 g/ha was 50%.

Q: `CCc1sc(-c2ccc(Cl)cc2Br)nc1C1C(=O)[C@@H]2CC[C@@H](C2)C1=O` (stereo partly shown) [Compound T51] was tested. Which pest or weed control at 250 g/ha did it give?
A: The pest or weed control at 250 g/ha was 20%.

Q: How did the pest or weed control at 250 g/ha turn out when `CSc1ccc(-c2nc(C3C(=O)[C@@H]4CC[C@@H](C4)C3=O)c(C)s2)cc1` (stereo partly shown) [Compound T81] was run?
A: Its pest or weed control at 250 g/ha is 40%.

What follows are compounds tested on Alopecurus myosuroides (ALOMY) (assay: Example B pre-emergence herbicidal activity). Settings: 312 h, rate 250 g/ha, evaluated after 13 days, read-out: Pre-Emergence Activity ALOMY (100=total damage to plant; 0=no damage to plant).
Format: in vivo
Method in brief: as §1

Q: How did the pest or weed control at 250 g/ha turn out when `CCc1sc(-c2c(F)cc(Cl)cc2F)nc1C1C(=O)[C@@H]2CC[C@@H](C2)C1=O` (stereo partly shown) [Compound T29] was run?
A: The pest or weed control at 250 g/ha was 90%.

Q: How did the pest or weed control at 250 g/ha turn out when `Cc1sc(-c2ccc(OC(F)F)cc2Cl)nc1C1=C(OC(=O)C(C)(C)C)[C@@H]2CC[C@@H](C2)C1=O` [Compound P17] was run?
A: The pest or weed control at 250 g/ha was 80%.

Q: `CCc1sc(-c2ccc(Cl)cc2Br)nc1C1C(=O)[C@@H]2CC[C@@H](C2)C1=O` (stereo partly shown) [Compound T51] was tested. Which pest or weed control at 250 g/ha did it give?
A: Its pest or weed control at 250 g/ha is 80%.

Q: Which pest or weed control at 250 g/ha does the source give for `CSc1ccc(-c2nc(C3C(=O)[C@@H]4CC[C@@H](C4)C3=O)c(C)s2)cc1` (stereo partly shown) [Compound T81] here?
A: Its pest or weed control at 250 g/ha is 50%.

These compounds were tested on Setaria faberi (SETFA) (assay: Example B post-emergence herbicidal activity). Settings: 312 h, rate 250 g/ha, evaluated after 13 days, read-out: Post-emergence activity SETFA (100=total damage to plant; 0=no damage to plant).
Format: in vivo
Method in brief: as §1

Q: `CCc1sc(-c2c(F)cc(Cl)cc2F)nc1C1C(=O)[C@@H]2CC[C@@H](C2)C1=O` (stereo partly shown) [Compound T29] was tested. Which pest or weed control at 250 g/ha did it give?
A: Its pest or weed control at 250 g/ha is 100%.

Q: How did the pest or weed control at 250 g/ha turn out when `Cc1sc(-c2ccc(OC(F)F)cc2Cl)nc1C1=C(OC(=O)C(C)(C)C)[C@@H]2CC[C@@H](C2)C1=O` [Compound P17] was run?
A: The pest or weed control at 250 g/ha was 100%.

Q: With `CCc1sc(-c2ccc(Cl)cc2Br)nc1C1C(=O)[C@@H]2CC[C@@H](C2)C1=O` (stereo partly shown) [Compound T51] as the compound, how does the pest or weed control at 250 g/ha read?
A: The pest or weed control at 250 g/ha was 100%.

Q: With `CSc1ccc(-c2nc(C3C(=O)[C@@H]4CC[C@@H](C4)C3=O)c(C)s2)cc1` (stereo partly shown) [Compound T81] as the compound, how does the pest or weed control at 250 g/ha read?
A: The pest or weed control at 250 g/ha was 100%.

These compounds were tested on Echinochloa crus-galli (ECHCG) (assay: Example B post-emergence herbicidal activity). Settings: 312 h, rate 250 g/ha, evaluated after 13 days, read-out: Post-emergence activity ECHCG (100=total damage to plant; 0=no damage to plant).
Format: in vivo
Method in brief: as §1

Q: With `CCc1sc(-c2c(F)cc(Cl)cc2F)nc1C1C(=O)[C@@H]2CC[C@@H](C2)C1=O` (stereo partly shown) [Compound T29] as the compound, how does the pest or weed control at 250 g/ha read?
A: Its pest or weed control at 250 g/ha is 100%.

Q: With `Cc1sc(-c2ccc(OC(F)F)cc2Cl)nc1C1=C(OC(=O)C(C)(C)C)[C@@H]2CC[C@@H](C2)C1=O` [Compound P17] as the compound, how does the pest or weed control at 250 g/ha read?
A: Its pest or weed control at 250 g/ha is 100%.

Q: With `CCc1sc(-c2ccc(Cl)cc2Br)nc1C1C(=O)[C@@H]2CC[C@@H](C2)C1=O` (stereo partly shown) [Compound T51] as the compound, how does the pest or weed control at 250 g/ha read?
A: The pest or weed control at 250 g/ha was 100%.

Q: Which pest or weed control at 250 g/ha does the source give for `CSc1ccc(-c2nc(C3C(=O)[C@@H]4CC[C@@H](C4)C3=O)c(C)s2)cc1` (stereo partly shown) [Compound T81] here?
A: Its pest or weed control at 250 g/ha is 100%.

Each compound was assayed on Amaranthus retoflexus (AMARE) (assay: Example B post-emergence herbicidal activity). Settings: Amaranthus retroflexus, 312 h, rate 250 g/ha, evaluated after 13 days, read-out: Post-emergence activity AMARE (100=total damage to plant; 0=no damage to plant).
Format: in vivo
Method in brief: as §1

Q: Which pest or weed control at 250 g/ha does the source give for `CCc1sc(-c2c(F)cc(Cl)cc2F)nc1C1C(=O)[C@@H]2CC[C@@H](C2)C1=O` (stereo partly shown) [Compound T29] here?
A: The pest or weed control at 250 g/ha was 0%.

Q: For `Cc1sc(-c2ccc(OC(F)F)cc2Cl)nc1C1=C(OC(=O)C(C)(C)C)[C@@H]2CC[C@@H](C2)C1=O` [Compound P17], which pest or weed control at 250 g/ha is on record?
A: Its pest or weed control at 250 g/ha is 0%.

Q: `CCc1sc(-c2ccc(Cl)cc2Br)nc1C1C(=O)[C@@H]2CC[C@@H](C2)C1=O` (stereo partly shown) [Compound T51] was tested. Which pest or weed control at 250 g/ha did it give?
A: Its pest or weed control at 250 g/ha is 0%.

Q: `CSc1ccc(-c2nc(C3C(=O)[C@@H]4CC[C@@H](C4)C3=O)c(C)s2)cc1` (stereo partly shown) [Compound T81] was tested. Which pest or weed control at 250 g/ha did it give?
A: Its pest or weed control at 250 g/ha is 0%.

Each compound was assayed on Avena fatua (AVEFA) (assay: Example B post-emergence herbicidal activity). Settings: 312 h, rate 250 g/ha, evaluated after 13 days, read-out: Post-emergence activity AVEFA (100=total damage to plant; 0=no damage to plant).
Format: in vivo
Method in brief: as §1

Q: Which pest or weed control at 250 g/ha does the source give for `CCc1sc(-c2c(F)cc(Cl)cc2F)nc1C1C(=O)[C@@H]2CC[C@@H](C2)C1=O` (stereo partly shown) [Compound T29] here?
A: Its pest or weed control at 250 g/ha is 100%.

Q: How did the pest or weed control at 250 g/ha turn out when `Cc1sc(-c2ccc(OC(F)F)cc2Cl)nc1C1=C(OC(=O)C(C)(C)C)[C@@H]2CC[C@@H](C2)C1=O` [Compound P17] was run?
A: The pest or weed control at 250 g/ha was 80%.

Q: How did the pest or weed control at 250 g/ha turn out when `CCc1sc(-c2ccc(Cl)cc2Br)nc1C1C(=O)[C@@H]2CC[C@@H](C2)C1=O` (stereo partly shown) [Compound T51] was run?
A: The pest or weed control at 250 g/ha was 100%.

Q: For `CSc1ccc(-c2nc(C3C(=O)[C@@H]4CC[C@@H](C4)C3=O)c(C)s2)cc1` (stereo partly shown) [Compound T81], which pest or weed control at 250 g/ha is on record?
A: The pest or weed control at 250 g/ha was 50%.

Each compound was assayed on Alopecurus myosuroides (ALOMY) (assay: Example B post-emergence herbicidal activity). Settings: 312 h, rate 250 g/ha, evaluated after 13 days, read-out: Post-emergence activity ALOMY (100=total damage to plant; 0=no damage to plant).
Format: in vivo
Method in brief: as §1

Q: With `CCc1sc(-c2c(F)cc(Cl)cc2F)nc1C1C(=O)[C@@H]2CC[C@@H](C2)C1=O` (stereo partly shown) [Compound T29] as the compound, how does the pest or weed control at 250 g/ha read?
A: Its pest or weed control at 250 g/ha is 100%.

Q: Which pest or weed control at 250 g/ha does the source give for `Cc1sc(-c2ccc(OC(F)F)cc2Cl)nc1C1=C(OC(=O)C(C)(C)C)[C@@H]2CC[C@@H](C2)C1=O` [Compound P17] here?
A: The pest or weed control at 250 g/ha was 90%.

Q: For `CCc1sc(-c2ccc(Cl)cc2Br)nc1C1C(=O)[C@@H]2CC[C@@H](C2)C1=O` (stereo partly shown) [Compound T51], which pest or weed control at 250 g/ha is on record?
A: Its pest or weed control at 250 g/ha is 100%.

Q: For `CSc1ccc(-c2nc(C3C(=O)[C@@H]4CC[C@@H](C4)C3=O)c(C)s2)cc1` (stereo partly shown) [Compound T81], which pest or weed control at 250 g/ha is on record?
A: Its pest or weed control at 250 g/ha is 50%.

Source: patent US8598365B2, “Herbicides” (Syngenta Limited, priority 2007, dated 2013)
